Laboratory results reported in the CheMixHub drug solubility set.

Experiment: xn = mol fraction of the nth substance listed, in the solute-free solvent

CC(C)C(=O)Nc1ccc([N+](=O)[O-])c(C(F)(F)F)c1 + CC(C)O + O
solubility (g/100 g solution)
Conditions | 278.15 K | 283.15 K | 288.15 K | 293.15 K | 298.15 K | 303.15 K | 308.15 K | 313.15 K | 318.15 K | 323.15 K
x2 = 0.03225 | 0.00411 | 0.00535 | 0.00694 | 0.00908 | 0.0116 | 0.0149 | 0.0187 | 0.0236 | 0.0297 | 0.0366
x2 = 0.06974 | 0.0295 | 0.0376 | 0.0488 | 0.0614 | 0.0768 | 0.0971 | 0.121 | 0.15 | 0.185 | 0.226
x2 = 0.1139 | 0.145 | 0.182 | 0.228 | 0.279 | 0.342 | 0.415 | 0.505 | 0.598 | 0.707 | 0.853
x2 = 0.1666 | 0.533 | 0.638 | 0.775 | 0.929 | 1.12 | 1.32 | 1.54 | 1.82 | 2.11 | 2.46
x2 = 0.2307 | 1.53 | 1.83 | 2.16 | 2.51 | 2.97 | 3.45 | 3.99 | 4.54 | 5.22 | 5.9
x2 = 0.3103 | 3.62 | 4.25 | 5 | 5.84 | 6.78 | 7.81 | 9.03 | 10.4 | 11.7 | 13.3
x2 = 0.4117 | 6.94 | 8.23 | 9.52 | 11.1 | 12.8 | 14.6 | 16.6 | 18.9 | 21.3 | 23.8
x2 = 0.5454 | 11.6 | 13.6 | 15.6 | 17.6 | 20.1 | 22.3 | 25 | 28.1 | 30.8 | 33.6
x2 = 0.7297 | 16.9 | 19.1 | 21.6 | 24.2 | 27.3 | 30.4 | 33 | 36.1 | 39.4 | 42.8

O=C1C=CC(=O)N1c1ccccc1Br + CC(C)O + O
solubility (g/100 g solution)
Conditions | 278.15 K | 283.15 K | 288.15 K | 293.15 K | 298.15 K | 303.15 K | 308.15 K | 313.15 K | 318.15 K | 323.15 K
x2 = 0.03225 | 0.488 | 0.623 | 0.779 | 0.978 | 1.23 | 1.51 | 1.84 | 2.23 | 2.7 | 3.25
x2 = 0.06974 | 0.861 | 1.08 | 1.35 | 1.69 | 2.09 | 2.55 | 3.1 | 3.77 | 4.48 | 5.34
x2 = 0.1139 | 1.4 | 1.76 | 2.18 | 2.7 | 3.31 | 3.97 | 4.86 | 5.84 | 6.97 | 8.22
x2 = 0.1666 | 2.08 | 2.57 | 3.18 | 3.87 | 4.71 | 5.69 | 6.76 | 8.01 | 9.42 | 11
x2 = 0.2307 | 2.9 | 3.57 | 4.27 | 5.21 | 6.18 | 7.35 | 8.51 | 10.1 | 11.6 | 13.5
x2 = 0.3103 | 3.46 | 4.18 | 5.06 | 6.06 | 7.2 | 8.48 | 9.92 | 11.5 | 13.2 | 15.1
x2 = 0.4117 | 3.79 | 4.6 | 5.54 | 6.58 | 7.75 | 9.12 | 10.5 | 12.3 | 14.1 | 16.1
x2 = 0.5454 | 3.85 | 4.69 | 5.65 | 6.75 | 7.99 | 9.39 | 10.8 | 12.7 | 14.6 | 16.7
x2 = 0.7297 | 3.73 | 4.58 | 5.43 | 6.58 | 7.83 | 9.28 | 10.8 | 12.5 | 14.4 | 16.6
